Paper PMC11672637, “7-O-Carboxylic Acid-Substituted 3-O-Alkyl Difluoroquercetin; An Aztreonam-Potentiating Agent Against Carbapenemase-Producing Pseudomonas aeruginosa Through Simultaneous Inhibition of Metallo-β-Lactamase and Efflux Pump” (Antibiotics, 2024)

How the values were obtained:
Format in all cases: cell-based, P. aeruginosa
PA-003, blaVIM = experiment: Time–kill assay; details: for Log CFU/mL, ATM + 5: 24 h
Description: (§1) Aliquots (50 μL) were taken from the incubation mixture at regular time intervals (t = 0, 3, 6, and 24 h), serially diluted in 0.85% NaCl solution, and plated on BAP. Bacterial colonies were counted, and the data are presented as the means of at least three independent experiments.

PA-017, blaNDM = experiment: Time–kill assay; details: for Log CFU/mL, ATM + 5: 24 h
Description: as §1

PA-014, blaGES = experiment: Time–kill assay; details: for Log CFU/mL, ATM + 5: 24 h
Description: as §1

PA-039, blaNDM = experiment: MIC / checkerboard with ATM; details: PA-039

SMILES: CC(C)(C)CCOc1c(-c2ccc(F)c(F)c2)oc2cc(OCC(=O)O)cc(O)c2c1=O [Compound 5, 2-((2-(3,4-Difluorophenyl)-3-(3,3-dimethylbutoxy)-5-hydroxy-4-oxo-4H-chromen-7-yl)oxy)acetic Acid]
- Diff. (ATM + 5 vs ATM only) (PA-003, blaVIM; ATM 1/2 MIC + 5 at 8 mg/L): −0.04 Log CFU/mL
- Log CFU/mL, ATM + 5 (PA-003, blaVIM; ATM 1/2 MIC + 5 at 8 mg/L): 9.84 Log CFU/mL
- Diff. (ATM + 5, 24 h vs initial inoculum) (PA-003, blaVIM; ATM 1/4 MIC + 5 at 8 mg/L): 4.35 Log CFU/mL
- Diff. (ATM + 5 vs ATM only) (PA-003, blaVIM; ATM 1/4 MIC + 5 at 8 mg/L): −0.1 Log CFU/mL
- Log CFU/mL, ATM + 5 (PA-003, blaVIM; ATM 1/4 MIC + 5 at 8 mg/L): 10.08 Log CFU/mL
- Diff. (ATM + 5, 24 h vs initial inoculum) (PA-003, blaVIM; ATM 1 MIC + 5 at 8 mg/L): −5.5 Log CFU/mL
- Diff. (ATM + 5 vs ATM only) (PA-003, blaVIM; ATM 1 MIC + 5 at 8 mg/L): −8.9 Log CFU/mL
- Synergistic activity, interpretation (PA-003, blaVIM; ATM 1 MIC + 5 at 8 mg/L): Synergy (a ≥ 2 log10 decrease in CFU/mL for the combination of ATM and 5 compared to ATM alone after 24 h of incubation)
- Log CFU/mL, ATM + 5 (PA-003, blaVIM; ATM 1 MIC + 5 at 8 mg/L): 0.23 Log CFU/mL
- Diff. (ATM + 5, 24 h vs initial inoculum) (PA-003, blaVIM; ATM 2 MIC + 5 at 8 mg/L): −5.73 Log CFU/mL
- Diff. (ATM + 5 vs ATM only) (PA-003, blaVIM; ATM 2 MIC + 5 at 8 mg/L): −6.4 Log CFU/mL
- Synergistic activity, interpretation (PA-003, blaVIM; ATM 2 MIC + 5 at 8 mg/L): Synergy (a ≥ 2 log10 decrease in CFU/mL for the combination of ATM and 5 compared to ATM alone after 24 h of incubation)
- Log CFU/mL, ATM + 5 (PA-003, blaVIM; ATM 2 MIC + 5 at 8 mg/L): 0.00 Log CFU/mL
- Diff. (ATM + 5, 24 h vs initial inoculum) (PA-017, blaNDM; ATM 1/2 MIC + 5 at 8 mg/L): 1.52 Log CFU/mL
- Diff. (ATM + 5 vs ATM only) (PA-017, blaNDM; ATM 1/2 MIC + 5 at 8 mg/L): −3.45 Log CFU/mL
- Synergistic activity, interpretation (PA-017, blaNDM; ATM 1/2 MIC + 5 at 8 mg/L): Synergy (a ≥ 2 log10 decrease in CFU/mL for the combination of ATM and 5 compared to ATM alone after 24 h of incubation)
- Log CFU/mL, ATM + 5 (PA-017, blaNDM; ATM 1/2 MIC + 5 at 8 mg/L): 6.52 Log CFU/mL
- Diff. (ATM + 5, 24 h vs initial inoculum) (PA-017, blaNDM; ATM 1/4 MIC + 5 at 8 mg/L): 4.97 Log CFU/mL
- Diff. (ATM + 5 vs ATM only) (PA-017, blaNDM; ATM 1/4 MIC + 5 at 8 mg/L): −0.77 Log CFU/mL
- Log CFU/mL, ATM + 5 (PA-017, blaNDM; ATM 1/4 MIC + 5 at 8 mg/L): 9.97 Log CFU/mL
- Diff. (ATM + 5, 24 h vs initial inoculum) (PA-017, blaNDM; ATM 1 MIC + 5 at 8 mg/L): −4.75 Log CFU/mL
- Diff. (ATM + 5 vs ATM only) (PA-017, blaNDM; ATM 1 MIC + 5 at 8 mg/L): −6.27 Log CFU/mL
- Synergistic activity, interpretation (PA-017, blaNDM; ATM 1 MIC + 5 at 8 mg/L): Synergy (a ≥ 2 log10 decrease in CFU/mL for the combination of ATM and 5 compared to ATM alone after 24 h of incubation)
- Log CFU/mL, ATM + 5 (PA-017, blaNDM; ATM 1 MIC + 5 at 8 mg/L): 0.25 Log CFU/mL
- Diff. (ATM + 5, 24 h vs initial inoculum) (PA-017, blaNDM; ATM 2 MIC + 5 at 8 mg/L): −5.00 Log CFU/mL
- Diff. (ATM + 5 vs ATM only) (PA-017, blaNDM; ATM 2 MIC + 5 at 8 mg/L): −0.12 Log CFU/mL
- Log CFU/mL, ATM + 5 (PA-017, blaNDM; ATM 2 MIC + 5 at 8 mg/L): 0.00 Log CFU/mL
- Diff. (ATM + 5, 24 h vs initial inoculum) (PA-014, blaGES; ATM 1/2 MIC + 5 at 8 mg/L): 1.65 Log CFU/mL
- Diff. (ATM + 5 vs ATM only) (PA-014, blaGES; ATM 1/2 MIC + 5 at 8 mg/L): −2.23 Log CFU/mL
- Synergistic activity, interpretation (PA-014, blaGES; ATM 1/2 MIC + 5 at 8 mg/L): Synergy (a ≥ 2 log10 decrease in CFU/mL for the combination of ATM and 5 compared to ATM alone after 24 h of incubation)
- Log CFU/mL, ATM + 5 (PA-014, blaGES; ATM 1/2 MIC + 5 at 8 mg/L): 6.60 Log CFU/mL
- Diff. (ATM + 5, 24 h vs initial inoculum) (PA-014, blaGES; ATM 1/4 MIC + 5 at 8 mg/L): 3.88 Log CFU/mL
- Diff. (ATM + 5 vs ATM only) (PA-014, blaGES; ATM 1/4 MIC + 5 at 8 mg/L): −0.5 Log CFU/mL
- Log CFU/mL, ATM + 5 (PA-014, blaGES; ATM 1/4 MIC + 5 at 8 mg/L): 8.83 Log CFU/mL
- Diff. (ATM + 5, 24 h vs initial inoculum) (PA-014, blaGES; ATM 1 MIC + 5 at 8 mg/L): −2.32 Log CFU/mL
- Diff. (ATM + 5 vs ATM only) (PA-014, blaGES; ATM 1 MIC + 5 at 8 mg/L): −5.05 Log CFU/mL
- Synergistic activity, interpretation (PA-014, blaGES; ATM 1 MIC + 5 at 8 mg/L): Synergy (a ≥ 2 log10 decrease in CFU/mL for the combination of ATM and 5 compared to ATM alone after 24 h of incubation)
- Log CFU/mL, ATM + 5 (PA-014, blaGES; ATM 1 MIC + 5 at 8 mg/L): 2.63 Log CFU/mL
- Diff. (ATM + 5, 24 h vs initial inoculum) (PA-014, blaGES; ATM 2 MIC + 5 at 8 mg/L): −4.8 Log CFU/mL
- Diff. (ATM + 5 vs ATM only) (PA-014, blaGES; ATM 2 MIC + 5 at 8 mg/L): −2.3 Log CFU/mL
- Synergistic activity, interpretation (PA-014, blaGES; ATM 2 MIC + 5 at 8 mg/L): Synergy (a ≥ 2 log10 decrease in CFU/mL for the combination of ATM and 5 compared to ATM alone after 24 h of incubation)
- Log CFU/mL, ATM + 5 (PA-014, blaGES; ATM 2 MIC + 5 at 8 mg/L): 0.15 Log CFU/mL
- Activity (FICI class) (PA-039, blaNDM): S (S (Synergy, FICI ≤ 0.5))
- Concentrations of ATM and 5 at lowest FICI (ATM/5) (PA-039, blaNDM): 4/8
- Lowest FICI (ATM/5) (PA-039, blaNDM): 0.27
- Minimum concentration of 5 to make sensitive to ATM (PA-039, blaNDM): 4 mg/L
